Reference: paper PMC10500703 (Journal of medicinal chemistry, 2021)
In brackets after ≈: the same amount, converted by molar mass. Like-named read-outs stand apart in the source and are kept apart here.

Legend:
Mtb H37Rv [1] = test: microbe, parasite or virus in culture; settings: Mycobacterium tuberculosis
physchem = settings: pH 7
[2] = Mouse PK, intravenous dosing; assay type: in vivo; settings: for CLb: total body clearance from whole blood; for half-life at 24 h: in vivo, iv, 2 mg/kg
replicating Mtb = assay type: cell-based, Mycobacterium tuberculosis
non-replicating Mtb = assay type: cell-based, Mycobacterium tuberculosis
[3] = assay type: in vivo, mouse; settings: for exposure on oral dosing: oral dosing (data not shown)
Mtb isolate S1125 = test: microbe, parasite or virus in culture; assay type: cell-based; settings: Mycobacterium tuberculosis
Mtb H37Rv [4] = tested on: Mtb H37Rv
Human plasma protein = Human plasma protein binding; assay type: in vitro ADME; settings: fraction unbound
Mtb H37RvMA = assay type: cell-based, Mycobacterium tuberculosis
Mtb Erdman strain = assay type: cell-based, Mycobacterium tuberculosis
intracellular Mtb = assay type: cell-based, Mycobacterium tuberculosis; settings: read-out: IC90 against intracellular Mtb
Microsomal clearance [5] = assay type: in vitro ADME; settings: human microsomes
[6] = aqueous pH 7.4 phosphate buffer simulating thermodynamic conditions
Microsomal clearance [7] = assay type: in vitro ADME; settings: mouse microsomes
Microsomal clearance [8] = assay type: in vitro ADME; settings: rat microsomes
LogD = assay type: physicochemical

## CS(=O)(=O)NC(=O)/C=C/c1cn(-c2ccc(Br)cc2)nc1-c1ccncc1 [Compound 39, (E)-3-(1-(4-bromophenyl)-3-(pyridin-4-yl)-1H-pyrazol-4-yl)-N-(methylsulfonyl)acrylamide]
Mtb H37Rv [1]
  MIC: 1.2 to 4.7 µM (≈ 0.537 to 2.1 µg/mL)
physchem
  solubility: 185 µM (≈ 82.8 µg/mL)

## CS(=O)(=O)NC(=O)/C=C/c1cn(-c2ccc(Cl)cc2)nc1-c1ccncc1 [Compound 38, (E)-3-(1-(4-chlorophenyl)-3-(pyridin-4-yl)-1H-pyrazol-4-yl)-N-(methylsulfonyl)acrylamide]
[2]; intravenous 2 mg/kg
  CLb: > 200 mL/min/kg

## CS(=O)(=O)NC(=O)C1CC1c1cn(-c2ccc(Cl)cc2)nc1-c1ccncc1 (stereo not shown) [Compound 40, 2-(1-(4-chlorophenyl)-3-(pyridin-4-yl)-1H-pyrazol-4-yl)-N-(methylsulfonyl)cyclopropane-1-carboxamide]
Mtb H37Rv [1]
  MIC: 12.5 to 19 µM (≈ 5.21 to 7.92 µg/mL)
[2]; intravenous 2 mg/kg
  CLb: > 200 mL/min/kg

## CS(=O)(=O)NC(=O)C1CC1c1cn(-c2ccc(Br)cc2)nc1-c1ccncc1 (stereo not shown) [Compound 41, 2-(1-(4-bromophenyl)-3-(pyridin-4-yl)-1H-pyrazol-4-yl)-N-(methylsulfonyl)cyclopropane-1-carboxamide]
Mtb H37Rv [1]
  MIC: 12.5 to 19 µM (≈ 5.77 to 8.77 µg/mL)

## CC(CC(=O)NS(C)(=O)=O)c1cn(-c2ccc(Cl)cc2)nc1-c1ccncc1 (stereo not shown) [Compound 37, 3-(1-(4-chlorophenyl)-3-(pyridin-4-yl)-1H-pyrazol-4-yl)-N-(methylsulfonyl)butanamide]
Mtb H37Rv [1]
  MIC: ≥ 50 µM

## CCS(=O)(=O)NC(=O)CCc1cn(-c2ccc(Br)cc2)nc1-c1ccc(Cl)cc1 [Compound 33, 3-(1-(4-bromophenyl)-3-(4-chlorophenyl)-1H-pyrazol-4-yl)-N-(ethylsulfonyl) propanamide]
Mtb H37Rv [1]
  MIC: 12.5 µM (≈ 6.21 µg/mL)

## CS(=O)(=O)NC(=O)CCc1cn(-c2ccc(Br)cc2)nc1-c1ccc(Cl)cc1 [Compound 1, 3-(1-(4-bromophenyl)-3-(4-chlorophenyl)-1H-pyrazol-4-yl)-N-(methylsulfonyl)propanamide]
Replicating Mtb
  log CFU reduction: 2–2.5 log CFU
non-replicating Mtb
  activity against non-replicating Mtb: not active
[3]
  exposure on oral dosing: high exposure
[2]
  half-life at 24 h: 2 h
[2]; intravenous 2 mg/kg
  CLb: 1.18 mL/min/kg

## CS(=O)(=O)NC(=O)CCc1nn(-c2ccc(Br)cc2)cc1-c1ccc(Cl)cc1 [Compound 53, 3-(1-(4-bromophenyl)-4-(4-chlorophenyl)-1H-pyrazol-3-yl)-N-(methylsulfonyl)propanamide]
Mtb H37Rv [1]
  MIC: ≥ 50 µM

## CS(=O)(=O)NC(=O)CCc1cn(-c2ccc(Br)cc2)nc1-c1ccncc1 [Compound 16, 3-(1-(4-bromophenyl)-3-(pyridin-4-yl)-1H-pyrazol-4-yl)-N-(methylsulfonyl)propanamide]
Replicating Mtb
  log CFU reduction: 2–2.5 log CFU
non-replicating Mtb
  activity against non-replicating Mtb: not active
Mtb isolate S1125
  MIC: 15 to 30 µM (≈ 6.74 to 13.5 µg/mL)
[2]; intravenous 2 mg/kg
  CLb: > 200 mL/min/kg

## 3-(1,3-bis(4-chlorophenyl)-1H-pyrazol-5-yl)-N-(methylsulfonyl)propanamide [Compound 8]
Mtb H37Rv [4]
  MIC: 4.7 µM
Human plasma protein
  Human PPB fu: 0.023
Mtb H37RvMA
  MIC: 4 µM
Replicating Mtb
  log CFU reduction: 2–2.5 log CFU
non-replicating Mtb
  activity against non-replicating Mtb: not active
Mtb Erdman strain
  MIC against the Mtb Erdman strain: 9.1 µM
[3]
  exposure on oral dosing: high exposure
[3]; oral dosing, even at high doses
  bioavailability: > 95%
Intracellular Mtb
  IC90: 11 µM
Microsomal clearance [5]
  Microsomal clearance % remaining, Human: 98%
[6]
  solubility: 100 µM
Microsomal clearance [7]
  Microsomal clearance % remaining, Mouse: 87%
Microsomal clearance [8]
  Microsomal clearance % remaining, Rat: > 99%
[2]; intravenous 2 mg/kg
  AUC0 – t: 4883 µmol·min/L
  Vd: 1.2 L/kg
  t½ terminal: 3.6 h
  CLb: 2.56 mL/min/kg
LogD
  LogD: 2.0

## CS(=O)(=O)NC(=O)CCc1cn(-c2ccc(Br)cc2)nc1-c1cccc(Cl)c1 [Compound 14, 3-(1-(4-bromophenyl)-3-(3-chlorophenyl)-1H-pyrazol-4-yl)-N-(methylsulfonyl)propanamide]
Mtb H37Rv [1]
  MIC: 2.3 µM (≈ 1.11 µg/mL)

## CS(=O)(=O)NC(=O)CCc1cn(-c2ccc(Cl)cc2)nc1-c1ccncc1 [Compound 35, 3-(1-(4-chlorophenyl)-3-(pyridin-4-yl)-1H-pyrazol-4-yl)-N-(methylsulfonyl)propanamide]
Mtb H37Rv [1]
  MIC: 6.25 µM (≈ 2.53 µg/mL)

## O=c1[nH]c(CCc2cn(-c3ccc(Br)cc3)nc2-c2ccc(Cl)cc2)no1 [Compound 47, 3-(2-(1-(4-bromophenyl)-3-(4-chlorophenyl)-1H-pyrazol-4-yl)ethyl)-1,2,4-oxadiazol-5(4H)-one]
Mtb H37Rv [1]; 336 h
  MIC: ≥ 50 µM

## CS(=O)(=O)NC(=O)OCc1cn(-c2ccc(Cl)cc2)nc1-c1ccncc1 [Compound 45, (1-(4-chlorophenyl)-3-(pyridin-4-yl)-1H-pyrazol-4-yl)methyl (methylsulfonyl)carbamate]
Mtb H37Rv [1]
  MIC: 12.5 µM (≈ 5.09 µg/mL)
[2]; intravenous 2 mg/kg
  CLb: > 200 mL/min/kg

## CS(=O)(=O)NC(=O)NCc1cn(-c2ccc(Cl)cc2)nc1-c1ccncc1 [Compound 43, N-(((1-(4-chlorophenyl)-3-(pyridin-4-yl)-1H-pyrazol-4-yl)methyl)carbamoyl)methanesulfonamide]
[2]
  half-life at 24 h: 2 h
[2]; intravenous 2 mg/kg
  CLb: > 200 mL/min/kg

## CS(=O)(=O)NC(=O)CCc1cn(-c2ccc(Br)cc2)nc1-c1ccc([N+](=O)[O-])cc1 [Compound 23, 3-(1-(4-bromophenyl)-3-(4-nitrophenyl)-1H-pyrazol-4-yl)-N-(methylsulfonyl)propanamide]
Mtb H37Rv [1]
  MIC: 12.5 µM (≈ 6.17 µg/mL)

## CS(=O)(=O)NC(=O)CCc1cn(-c2ccc(F)cc2)nc1-c1ccc(Cl)cc1 [Compound 3, 3-(3-(4-chlorophenyl)-1-(4-fluorophenyl)-1H-pyrazol-4-yl)-N-(methylsulfonyl)propanamide]
Mtb H37Rv [1]
  MIC: ≥ 50 µM

## CS(=O)(=O)NC(=O)CCc1cc(-c2ccc(Br)cc2)nn1-c1ccc(Cl)cc1 [Compound 51, 3-(3-(4-bromophenyl)-1-(4-chlorophenyl)-1H-pyrazol-5-yl)-N-(methylsulfonyl)propanamide]
[3]
  exposure on oral dosing: high exposure
[2]; intravenous 2 mg/kg
  CLb: 3.13 mL/min/kg

## CS(=O)(=O)NC(=O)CCc1cn(-c2ccc(Br)cc2)nc1C1CCOCC1 [Compound 20, 3-(1-(4-bromophenyl)-3-(tetrahydro-2H-pyran-4-yl)-1H-pyrazol-4-yl)-N-(methylsulfonyl)propanamide]
[2]; intravenous 2 mg/kg
  CLb: 145 mL/min/kg

## CS(=O)(=O)NC(=O)CCc1cn(-c2ccc(Br)cc2)nc1C1CCN(C=O)CC1 [Compound 22, 3-(1-(4-bromophenyl)-3-(1-formylpiperidin-4-yl)-1H-pyrazol-4-yl)-N-(methylsulfonyl)propanamide]
Mtb H37Rv [1]
  MIC: ≥ 50 µM

## CS(=O)(=O)NC(=O)CCc1cn(-c2ccc(Br)cc2)nc1-c1cccnc1 [Compound 17, 3-(1-(4-bromophenyl)-3-(pyridin-3-yl)-1H-pyrazol-4-yl)-N-(methylsulfonyl)propanamide]
[2]; intravenous 2 mg/kg
  CLb: 178 mL/min/kg

## CS(=O)(=O)NC(=O)NCc1cc(-c2ccc(Br)cc2)oc1-c1ccncc1 [Compound 58, N-(((5-(4-bromophenyl)-2-(pyridin-4-yl)furan-3-yl)methyl)carbamoyl)methanesulfonamide]
[2]; intravenous 2 mg/kg
  CLb: > 200 mL/min/kg

## CS(=O)(=O)NC(=O)CCc1cn(-c2ccc(C(F)(F)F)nc2)nc1-c1ccc(Cl)cc1 [Compound 10, 3-(3-(4-chlorophenyl)-1-(6-(trifluoromethyl)pyridin-3-yl)-1H-pyrazol-4-yl)-N-(methylsulfonyl)propanamide]
[2]; intravenous 2 mg/kg
  CLb: 67.4 mL/min/kg
